Measurements published in patent publication US20240033502A1 (Wesbot, LLC, priority 2022, published 2024).
Where “and” joins values, the source holds several entries; their conditions need not be identical. Identical values can stand only once. Like-named read-outs stand apart in the source and are kept apart here.

Legend:
[1] = tested on: E. coli; experiment: Killing (antimicrobial) test, CFU count; type: cell-based, Escherichia coli
Method: The initial colony forming units per mL (CFU/mL) were counted by plating 50 uL of a dilution 1:10,000 of the culture on LB agar plates. Next, 3 ml of the bacterial culture were treated with 1 ml of separately generated H2O2 0.75 M such that the final concentration of H2O2 in the bacteria containing plates reached around 0.25 M. To count the bacterial survival after treatment, 100 μl of 1:10,000 dilution were plated on LB agar plates and incubated at 37° C. for 18-24 hrs. The percentage of killed bacteria was calculated using the initial CFU as 100% and subtracting the recovered CFU after treatment.

[2] = tested on: Escherichia coli (strain BW25113); details: paper filter disks moistened with 0.75 M generated hydrogen peroxide in PBS on seeded LB agar, 37° C. for 18-24 hr, qualitative
Method: A plate with Lysogeny Broth (LB) Agar media was evenly seeded with a 1 Optical Density (OD) culture of Escherichia coli (strain BW25113). […] Plates were left to dry and incubated at 37° C. for 18-24 hr.

[3] = tested on: E. coli; details: 0.5 mL of 0.05 OD culture, 5 mA electric current for 30 min; triplicate experiments
Method: To test this an E. coli culture was grown from a single colony in LB media at 37° C., until reaching 0.05 OD. Next, 0.5 mL of this culture was treated with 5 mA of electric current for 30 min. The counting of CFU/ml before and after applying the current for 30 min was done by plating 50 and 100 μL of 1:10,000 dilution respectively on LB agar plates and incubating at 37° C. for 18-24 hrs.

## OO [hydrogen peroxide]
[1]; 3 ml culture (0.05 OD) + 1 ml separately generated H2O2 0.75 M, final around 0.25 M, triplicate experiments
  Peroxide Treated (CFU x 10^6): 1.2 CFU x 10^6 and 0.7 CFU x 10^6
[1]; final H2O2 around 0.25 M, initial CFU as 100%, triplicate experiments
  % Killed (%): 96.1% and 96% and 94.2%
[1]; from triplicate antimicrobial test, Table 4
  rate at which bacteria population is killed: 2.5 % CFU/μmol H2O2
[2]
  zone of growth inhibition: disinfection in region of clearance
[2]; listed as H2O2
  zone of growth inhibition: zone of growth inhibition
[3]
  % Killed (%): 99.6%
